# Experiments:
# [1] = test system: MCF-7 human breast adenocarcinoma cell line; settings: adriamycin-selected MDR MCF-7 vs parental MCF-7; cited from earlier work
# MRP-β host cells = settings: versus source or control cells; 16-24 hours in culture
# Description: To establish this survival advantage, triplicate cultures of MRP-β host cells, control cells and source cells (e.g., MCF-7 human breast adenocarcinoma cells) are generated in 24-well cell culture plates. Once the cultures have attained at least 80% confluency, lethal or sub-lethal amounts of a cytotoxin (e.g., adriamycin, bisantrene) are added to each well. After a sufficient period of time for cytotoxic effects to be manifested (e.g., 16-24 hours in culture), culture media comprising the cytotoxic drug are aspirated or otherwise removed, and cells are stained with a vital dye such as Trypan blue. Which commercially available vital dye is used in this procedure is a matter of choice; thus, sulforodoamine B (see Powell et al. (1990), U.S. Pat. No. 5,550,149) could be used in lieu of Trypan blue. The number of cells that remain viable (e.g., capable of excluding the dye) are counted using a hemocytometer, flow cytometer or other appropriate device.
smiles,measurement,setting,value
COc1cccc2c1C(=O)c1c(O)c3c(c(O)c1C2=O)C[C@@](O)(C(=O)CO)C[C@@H]3O[C@H]1C[C@H](N)[C@H](O)[C@H](C)O1 [adriamycin],resistance of MDR derivative cell line relative to parental (wild-type) MCF-7,[1],192 fold
C(=N\NC1=NCCN1)/c1c2ccccc2c(/C=N/NC2=NCCN2)c2ccccc12 [bisantrene],survival of MRP-β expressing host cells on exposure to cytotoxin,MRP-β host cells,surviving exposure to otherwise lethal amounts
